In PubChem BioAssay AID488788 (Broad Institute, 2010):
Results filed as inconclusive are left out. Active and inactive are the calls of the source. How the calls were made is not given here.

The compounds below were run against CAAX prenyl protease 2 (Saccharomyces cerevisiae (strain ATCC 204508 / S288c)) (UniProt Q03530) (assay: Rce1p protease inhibitors, dose response, biochemical, plate reader, cherry-pick (AID 488788)). Details: Rce1p enzyme activity, at 10 µM (top of the series).
Chain of CAAX prenyl protease 2 (Saccharomyces cerevisiae (strain ATCC 204508 / S288c)) (Q03530 whole entry, looked up): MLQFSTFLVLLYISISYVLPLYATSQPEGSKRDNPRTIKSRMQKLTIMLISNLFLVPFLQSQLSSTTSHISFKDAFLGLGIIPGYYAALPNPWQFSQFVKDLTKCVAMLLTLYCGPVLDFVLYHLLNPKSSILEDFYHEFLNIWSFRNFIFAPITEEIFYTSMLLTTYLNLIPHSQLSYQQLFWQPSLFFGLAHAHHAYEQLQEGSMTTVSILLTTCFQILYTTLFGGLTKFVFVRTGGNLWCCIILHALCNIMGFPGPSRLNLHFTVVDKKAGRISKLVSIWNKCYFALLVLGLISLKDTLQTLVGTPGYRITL

Row | Structure (SMILES) | activity change, negative = inhibition
1 | CCOc1cc(-c2nc3c(C)cccn3c2NCC2CCCO2)ccc1O (configuration not stated) | inactive
2 | OC1CCN(C(c2ccc3ncccc3c2)c2nnnn2C2CCCCC2)CC1 (configuration not stated) | inactive
3 | Cc1nc(SC(C(=O)c2ccccc2)c2ccccc2)nc2ccccc12 (configuration not stated) | inactive
4 | CC(C)CNC(=O)COc1cccc(C(=O)NCc2ccccc2)c1 | inactive
5 | O=C(C1=C[C@@H](C2CC2)C[C@@H](OCc2ccc(CO)cc2)O1)N1CCN(Cc2ccccc2)CC1 | inactive
6 | Cc1ccc(-c2cc3cccc[n+]3cc2-c2ccc(C)cc2)cc1 | inactive
7 | CN1C(=O)c2ccccc2N(C)C1c1ccccc1Cl (configuration not stated) | inactive
8 | O=C(O)c1ccc(N/N=C/c2ccc(-c3ccccc3Cl)o2)cc1 | inactive
9 | Cc1ccc(S(=O)(=O)c2cn(C)c3cc(N4CCOCC4)c(F)cc3c2=O)cc1 | inactive
10 | Cc1ccc(S(=O)(=O)CC(=O)N2CCN(c3ccccc3F)CC2)cc1 | inactive
11 | CCc1nnc(NC(=O)c2ccc(NS(=O)(=O)c3ccccc3)cc2)s1 | inactive
12 | COC(C/C=C/[C@H](O)[C@@H](C)OCc1ccccc1)OC | inactive
13 | COc1ccc(OC)c(/C=N/c2c(-c3ccc(O)c(OC)c3)nc3ccccn23)c1 | inactive
14 | COCCn1cc(C(=O)NCCN(C)C)c2c3ccccc3n(C)c2c1=O | inactive
15 | CCC(=O)Nc1cccc(NC(=S)NC(=O)c2cccs2)c1 | inactive
16 | COc1cc2c(cc1OC)C(C)N(C(=O)CCNC(=O)c1ccccc1)CC2 (configuration not stated) | inactive
17 | CSc1ccc(/C=C/C(=O)OCC(=O)NC(C)C)cc1 | inactive
18 | Cc1cc(C)n(CC(=O)NC2CCCCC2C)c(=O)c1C#N (configuration not stated) | inactive
19 | CCOC(=O)c1ccc(NC(=O)N2CCN(Cc3ccccc3)CC2)cc1 | inactive
20 | COc1ccccc1N1CCN(C(=O)c2coc(=O)c(Br)c2)CC1 | inactive
21 | COc1ccccc1C1=NN(C2=NN=C(N)Cc3ncnn32)C(O)(C(F)(F)F)C1 (configuration not stated) | inactive
22 | CC(=O)c1c(C)[nH]c(C(=O)OCc2ccc(Br)cc2)c1C | inactive
23 | CC(C)C[C@H](NC(=O)c1nc[nH]c1C(=O)N1CCNCC1)C(=O)OCc1ccccc1 | inactive

Row | Structure (SMILES) | activity change, negative = inhibition
24 | O=C(CCCn1c(=O)[nH]c2ccc(Br)cc2c1=O)NCc1ccc(Cl)cc1 | inactive
25 | CCOc1ccccc1CNC(=O)c1cc2occc2n1C | inactive
26 | O=C1CCCN1CC(O)CS(=O)(=O)c1ccccc1 (configuration not stated) | inactive
27 | CC(=O)Nc1ccc(Cl)cc1C1COC(=O)C1=N (configuration not stated) | inactive
28 | Nc1nc2n[nH]nc2c(=O)[nH]1 | inactive
29 | COc1ccc(-c2nc3ncccc3o2)cc1NC(=O)c1ccco1 | inactive
30 | CCOC(=O)c1c(-c2ccccc2)oc2ccc(OCC(O)CNCCN(C)C)cc12 (configuration not stated) | inactive
31 | Cc1cccc(N2C(=O)c3cccc4c(N5CCCCC5)c([N+](=O)[O-])cc(c34)C2=O)c1C | inactive
32 | Cc1c(CCC(=O)O)c(=O)oc2cc(OCc3cccc(F)c3)ccc12 | inactive
33 | COc1cccc(NC(=O)Nc2cccn(Cc3ccc(C)cc3)c2=O)c1 | inactive
34 | O=C(N/N=C/C1CC=CCC1)c1ccc(O)cc1O (configuration not stated) | inactive
35 | NC(=O)[C@@H]1CC2(CC(c3cccc(NC(=O)CC(c4ccccc4)c4ccccc4)c3)=NO2)CN1C(=O)c1ccc(Cl)cc1 (some centres not stated) | inactive
36 | O=C(C1CCC(=O)N(C2CC2)C1)N1CCN(c2ccccc2Cl)CC1 (configuration not stated) | inactive
37 | CCN1CCN(Cc2c(O)ccc3c(=O)c(-c4ccccc4OC)coc23)CC1 | inactive
38 | CC(=O)N[C@@H](C)c1nc2ccccc2n1CCCN1CCN(c2nc(-c3ccc(C)cc3)cs2)CC1 | inactive
39 | COc1ccc(C2C3=C(CC(C)(C)CC3=O)Nc3n[nH]c(C)c32)cc1 (configuration not stated) | inactive
40 | CCN1CCN(c2ccc(NC(=O)c3cccc(OCc4ccccc4)c3)cc2)CC1 | inactive
41 | COc1ccccc1NC(=O)/C(=C\c1cccnc1)NC(=O)c1ccc(C)cc1 | inactive
42 | COc1ccc(CC(=O)OCC(=O)Nc2ccc(Br)cc2)cc1 | inactive
43 | CCOC(=O)c1cc(C)[nH]c(=O)c1C#N | inactive
44 | COc1ccc2c3c([nH]c2c1)C(C)=NCC3 | inactive
45 | Cc1cc(C)cc(N2CC(O)=C(c3nc4ccccc4c(=O)[nH]3)C2=N)c1 | inactive
46 | CCOc1ccc(C2C(C#N)=C(N)Oc3c2c(=O)oc2ccccc32)cc1 (configuration not stated) | inactive

Row | Structure (SMILES) | activity change, negative = inhibition
47 | COc1ccc(-c2c(-c3ccsc3)oc3ccc(N4CCOCC4)cc23)cn1 | inactive
48 | NC(N)=NC(=O)c1nc(Cl)c(N)nc1N | inactive
49 | CC(=O)OCC(=O)[C@@]12OC3(CCCC3)O[C@@H]1C[C@H]1[C@@H]3CCC4=CC(=O)C=C[C@]4(C)[C@@]3(F)[C@@H](O)C[C@@]12C | inactive
50 | O=C(Nc1cc(S(=O)(=O)N2CCOCC2)ccc1N1CCCC1)c1cnccn1 | inactive
51 | O=C(COc1ccccc1)Nc1cccc(-c2nc3cc4ccccc4cc3[nH]2)c1 | inactive
52 | O=C1NC(c2ccc(Br)cc2)Nc2ccccc21 (configuration not stated) | inactive
53 | CCn1c(COc2cccc(C)c2)nnc1SCC(=O)NC1CCCC1 | inactive
54 | COC(C/C=C/C(=O)[C@H](C)OCc1ccccc1)OC | inactive
55 | CN(C)CC(C)(C)CNC(=S)NCc1ccc2c(c1)OCO2 | inactive
56 | CCOC(=O)c1sc2nc(C3CC3)cc(-c3ccc(F)cc3)c2c1N | inactive
57 | CC1CCC/C(=C\Nc2ccccc2C(=O)O)C1=O (configuration not stated) | inactive
58 | CN(C)c1ccc(/C=N/NC(=O)C(O)c2ccc(Br)cc2)cc1 (configuration not stated) | inactive
59 | CC(=O)c1c(O)cc(O)c(C(C)=O)c1O | inactive
60 | CCOCc1cc(C)[nH]c(=O)c1C#N | inactive
61 | CC1=C(C(=O)N2CCOCC2)C(c2ccccc2F)C2=C(CC(C)(C)CC2=O)N1 (configuration not stated) | inactive
62 | CN1CCN(c2ccc([N+](=O)[O-])c(Sc3nncn3C)c2)CC1 | inactive
63 | CC(C)CC(=O)Nc1ccc2oc(-c3cccnc3)nc2c1 | inactive
64 | CCC(COC)NC(=O)CCc1nnc(Cc2cccc(C(F)(F)F)c2)o1 (configuration not stated) | inactive
65 | O=C(COC(=O)c1ccc(S(=O)(=O)N2CCCC2)cc1)NCc1ccccc1 | inactive
66 | COc1ccc2oc(-c3ccccc3)c(C(=O)N3CCOCC3)c2c1 | inactive
67 | O=C1C(Cc2c[nH]c3ccccc23)NC(=S)N1Cc1ccccc1 (configuration not stated) | inactive
68 | CN(C)CCNc1ncnc2oc(-c3ccccc3)c(-c3ccccc3)c12 | inactive
69 | COc1ccccc1-n1c(-c2ccccc2)c[nH]c1=S | inactive

Row | Structure (SMILES) | activity change, negative = inhibition
70 | Cc1cc(C(=O)N[C@H](c2ccccc2)[C@@]2(C)C[C@@H]2[C@@H](C)C(=O)Nc2ccc3ccccc3c2)n(C)n1 | inactive
71 | O=C(Nc1cccc2ncccc12)c1cccnc1 | inactive
72 | CCOc1cc(CNC2CCCC2)ccc1OCc1ccccc1Cl | inactive
73 | CCCCn1c(=O)[nH]c(=O)c2c1nc(-c1ccc(OC)c(Br)c1)n2CC(C)C | inactive
74 | CCCCOc1ccc(C(=O)Nn2c(-c3cccs3)nc3ccccc3c2=O)cc1 | inactive
75 | Oc1ccc(-c2nc3ccccn3c2NCc2ccco2)cc1 | inactive
76 | Cc1cc(Br)ccc1NC(=O)c1cnc(N2CCN(c3ccccn3)CC2)c2ccccc12 | inactive
77 | O=C(O)CCC(=O)c1ccc(-c2ccccc2)cc1 | inactive
78 | CCN(CC)c1ccc(C(=O)c2ccccc2C(=O)O)c(O)c1 | inactive
79 | CCn1nc(C)cc1C(=O)NC1CC(C)(C)Cc2c1cnn2-c1cccc(F)c1 (configuration not stated) | inactive
80 | COc1ccc(C)cc1NC(=O)CN1C(=O)COc2ccc(S(=O)(=O)N3CCOCC3)cc21 | inactive
81 | N#CC(/C(=N/S(=O)(=O)c1cccs1)c1ccccc1)c1nc2ccccc2[nH]1 (configuration not stated) | inactive
82 | CCOC(=O)c1sc2nc(C3CC3)cc(-c3ccc(OC)cc3)c2c1N | inactive
83 | CCN(CC)CCNC(=O)CSc1c2c(nc3cc(Cl)ccc13)CCCC2 | inactive
84 | O=[N+]([O-])c1cc(S(=O)(=O)N2CCCC2)ccc1NN=C1CCCCC1 | inactive
85 | CC(=O)c1c(C)oc2ccc(NS(=O)(=O)c3ccc(C(=O)O)cc3)cc12 | inactive
86 | c1cnn(Cc2cnc(N3CCOCC3)s2)c1 | inactive
87 | CCN(Cc1ccccc1)c1ccc(/C=N/N=C(N)N)cc1 | inactive
88 | CCCCOc1ccc(Cc2c(COCC)[nH]c(=S)[nH]c2=O)cc1 | inactive
89 | COc1ccc2[nH]c(C(=O)NCCCn3ccnc3)cc2c1 | inactive
90 | c1ccc(CCCN2CCN(CCOC(c3ccccc3)c3ccccc3)CC2)cc1 | inactive
91 | CC(C)NCC(O)COCCOc1ccc(Br)cc1 (configuration not stated) | inactive
92 | Cc1nn(-c2ccccc2)c2nc(N)c(C(N)=O)cc12 | inactive
